Assay results reported in patent US20110306071A1, “Compositions and Methods for Identifying Substrate Specificity of Inhibitors of Gamma Secretase” (ELAN PHARMACEUTICALS, INC., priority 2007, published 2011).

Key:
[1] = test system: nuclear AICD-GVP in COS-7 cells; experiment: Immunostaining, subcellular distribution of AICD-GVP in transfected COS-7 cells; type: cell-based
Method: Immunostaining: Wild type or transiently transfected COS-7 cells (ATCC) were fixed at room temperature with 2% paraformaldehyde in PBS for 20 min and subsequently permeabilized with 0.2% Triton X-100 in PBS for 10 min. C99GVP and mutant substrates as well as AICD-GVP were detected by incubating the samples sequentially with polyclonal anti-VP16 for 2 h and Rhodamine-conjugated donkey anti-goat secondary antibody (Jackson Laboratory Cat. #705-165-003) for 1 h. All staining was visualized on a Bio-Rad MRC 1024ES confocal microscope (Bio-Rad) and captured with a coupled CCD camera.

[2] = biological target: T1, gamma secretase γ and ε cleavage of Fas-APPsw-DD (Homo sapiens, UniProt P49768); experiment: Concurrent Aβ and AICD ELISA in Fas-APPsw-DD transfected 293 cells (APP γ versus ε cleavage); type: cell-based
T1 construct: active gamma secretase is endogenously and constitutively produced by the cell cultures; endogenous in cells; host or cells: HEK 293, transfected with Fas-APPsw-DD
Method: Polyclonal antibody AICD ELISA. HEK 293 cells were grown under standard conditions to ˜90% confluence. Cells were harvested, counted, and subsequently plated onto PDL-coated 60 mm dishes at 2×10^6 cells/dish in 5 mL media. The cells were allowed to settle onto the dishes for ˜4 hours. Transfection of various construct into cells was performed using standard techniques using Lipofectamine 2000™ (LF2K) (Invitrogen). Briefly, 2 μg plasmid DNA and 4 μL LF2K were diluted into separate 150 μL aliquots of Opti-MEM (Gibco), and allowed to stand for 10-15 minutes. The two aliquots were then mixed, and the DNA:Lipid complex allowed to form for about 20 minutes. The 300 μL DNA:Lipid complex was then added to the cells in 3 mL fresh media, and incubated overnight. In order to administer potential or known gamma secretase inhibitor compounds to cells, the transfected cells were harvested, replated into PDL-coated 24-well plates at 200,000 cells/well, and allowed to settle onto the plates for ˜4 hours. Cells were washed, and 500 μL fresh media added. […]
The term ‘non-selective’ in this instance refers to lack of selectivity for cell Aβ over Notch signaling (or GammaAPP over GammaNotch). […] The calculated γ/ε selectivity of the non-selective compounds (FIG. 11 and Table I) were 0.7, 1.1, 1.8 and 1.9 for DAPT, 44989, 46719 and the Merck compound, respectively. […]

[3] = biological target: T2, gamma secretase cleavage of C99GVP (AICD-GVP) (Homo sapiens, UniProt P49768); experiment: Luciferase reporter gene assay, AICD-GVP transactivation from C99GVP in HEK293 cells; type: cell-based; settings: C99-GVP, FIG. 5C
T2 construct: active gamma secretase is endogenously and constitutively produced by the cell cultures; endogenous in cells; host or cells: HEK 293, co-transfected with C99GVP, pG5E1B-luc and pCMV-β-gal
Method: Luciferase Reporter Gene Assay: Luciferase reporter assays were carried out 48 hr post-transfection. Cells seeded on 96-well plates (BD Biosciences) were washed once with PBS and harvested in 20 μl of reporter lysis buffer (Promega) per well. After adding 100 μl of luminescent substrate (Promega), the luciferase activity was measured with a MicroLumatPlus microplate luminometer (Berthold Technologies). The β-galactosidase activity was measured similarly, using a luminescent β-galactosidase substrate (BD Biosciences). As a control for transfection efficiency and general effect on transcription, the luciferase activity was normalized by measuring β-galactosidase activity on a duplicate plate. All measurements were done in triplicate and repeated at least three times.
Luciferase Assay. After confirming AICD-GVP generation in HEK cells, its ability to transactivate a luciferase reporter gene that contains Gal4 response elements in the upstream activation sequence (UAS) was tested. […] Some residual luciferase activity remained in the presence of excess gamma secretase inhibitors, even though identical treatment completely abolished AICD production as measured by Western blot (FIG. 5B). […]

[4] = test system: gamma secretase (secreted Aβ40 and Aβ42); experiment: Aβ sandwich ELISA of media from C99GVP or APP transfected HEK cells treated with inhibitors; type: cell-based, Human
Method: Inhibitor Treatment of Transfected HEK Cell: The transition state analogue gamma secretase inhibitor-L685,458 (Sigma) and the peptidomimetic inhibitor-DAPT (Dovey, H. F., et al., J Neurochem., 2001; 76:173-181) were dissolved in DMSO to make 20 mM stocks. Similarly, a number of Elan's series of sulfonamide inhibitors were prepared and used as described herein (see, also FIGS. 11-14). Inhibitors were added to cell cultures (e.g., HEK) at the indicated final concentration, and the treated cells were harvested 48 h post-transfection. The metallo-proteinase inhibitor TAPI-1 (Calbiochem) was used at a final concentration of 40 μM. The Aβ-degrading enzyme inhibitors, Bacitracin (Calbiochem) and phosphoramidon (Calbiochem) were used at final concentration of 1 mg/ml and 40 μM, respectively. All inhibitor experiments were performed in triplicate and repeated at least three times.
ELISAs used to quantify different Aβ species were performed using standard techniques as described above and in (Johnson-Wood, K., et al., Proc. Natl. Acad. Sci. U.S.A., 1997; 94: 1550-1555, incorporated by reference). The Aβ40 and Aβ42 peptides in the samples were captured onto 2G3 or 21F12 antibody coated plates, respectively, and detected with a biotinylated 2H3 antibody. The fluorescence signal generated from a streptavidin-alkaline phosphatase conjugate (Roche) was measured with a CytoFlour microplate reader (Applied Biosystems). Synthetic Aβ40 or Aβ42 peptides (Anaspec) were used to generate standard curves (FIG. 10). All measurements were done in triplicate.
Next, Aβ generation was characterized from C99GVP. Wild type HEK cells and the mock-transfection control secreted little Aβ into the conditioned media (FIG. 5D, lane 1). In contrast, transient expression of C99GVP led to robust Aβ production, as measured by IP/Western blot (FIG. 5D) and ELISAs that detect Aβ 40 and Aβ42 species, respectively ([…], top panel). […] Finally, we compared the Aβ-lowering potency of two inhibitors, using either C99GVP or the wild type APP as substrate. As determined by ELISA, the respective IC50 values for the two substrates are essentially identical (FIG. 5E).

γ/ε selectivity = IC50 AICD/IC50 Aβ [2]: 0.7 | Aβ potency (IC50) with C99GVP versus native APP substrate ([4]; FIG. 5E): equal Aβ potency
SMILES: C[C@H](NC(=O)Cc1cc(F)cc(F)c1)C(=O)N[C@H](C(=O)OC(C)(C)C)c1ccccc1 [DAPT]
nuclear staining of AICD-GVP ([1]; C99GVP transfected COS-7 cells, 5 μM, FIG. 5F): abolished | nuclear staining of JMD chimeras ([1]; JMD chimeras in COS-7 cells, FIG. 6G): abolished | luciferase reporter transactivation by AICD-GVP [3]: block luciferase reporter transactivation | secreted Aβ (Aβ40 and Aβ42) ([4]; 5 μM, 24 h, FIG. 5D): block secreted Aβ
